Here are results for five compounds from patent US9274101B2 (BIOLOG, Inc., priority 2001, dated 2016).

One experiment concerns HepG2 cells. The experiment is described as follows: HepG2 cells on flat bottom plastic wells, energy sources at a range of concentrations. In kind it is cell-based, human. The following applies: for activity at 30 µM / activity at 100 µM / activity at 330 µM / activity at 1000 µM / activity at 3300 µM / activity at 10000 µM / activity at 15000 µM / activity at 20000 µM: Homo sapiens, HepG2, 72 h, read-out: HepG2 Cells Responses After 72 hours in Culture and a 4 hour Color Development Period. How it is done:
In this Example, methods for testing adherent cells for their ability to use multiple carbon sources are described. The human hepatocellular carcinoma cell line known as HepG2 (Knowles et al., Science, 209:497-499 [1980]) was chosen for this experiment. However, this application is not intended to be limited to the use of HepG2 cells, hepatocytes, carcinoma cells or even human cells.
HepG2 cells were grown in Falcon tissue culture flasks with vented tops. The culture medium used was Minimal Essential medium (MEM, Invitrogen 11095) with 1 g/L glucose, 2 mM L-glutamine, 2.2 g/L sodium bicarbonate, 10 mg/L phenol red, and supplemented with 0.1 mM Nonessential Amino Acids, 1 mM sodium pyruvate, 50 U/mL penicillin, 50 μg/mL streptomycin, and 10% (v/v) heat inactivated fetal bovine serum (HI FBS, Invitrogen 16140). The cells were seeded at 2×10^4/cm^2 and used 3 days after initiation of culture. During all incubations, the cells were kept in an atmosphere of 5% CO2, 90-100% humidity, and 37° C. Cells were harvested by trypsinization for 3 minutes in 0.25% trypsin-1 mM EDTA and resuspended in an equal volume of culture medium. A viable cell count was obtained by trypan blue exclusion and an appropriate volume of the cell suspension (to have 33% more viable cells than was sufficient for the experiment) was placed in a polypropylene centrifuge tube. Cells were pelleted by centrifugation at 350×g for 10 minutes at room temperature, resuspended in Dulbecco's Phosphate Buffered Saline (D-PBS, Invitrogen 14040) and centrifuged a second time. Cells were then resuspended to two-thirds the final volume needed in Dulbecco' ? s Modified Eagle's Medium (DME, Sigma D5030) containing 10% HI FBS and penicillin-streptomycin but without glucose, L-glutamine, sodium pyruvate, and phenol red. An aliquot was counted by trypan blue exclusion and the cell density was adjusted to 1.28×10^5/mL. Cells were plated in 100 μL/well in wells of standard, 96-well plates (4×10^4 cells/cm^2) and allowed to adhere overnight prior to addition of test chemicals.
For assay, the culture medium was aspirated, the wells were washed once with D-PBS and 170 μL of DME were added to each well, followed by 30 μL of the appropriate dilution of each test energy source. Stocks of 133 mM of each test chemical were prepared in tissue culture grade water, sterile filtered, and dilutions were prepared in a master plate so that, upon dilution into a regular 96-well MICROPLATE a total well volume of 200 μL, the final concentrations would be 0.033 to 20 mM. Negative control wells received 30 μL of tissue culture grade water. For each plate containing energy sources and cells, a second, control plate containing only energy sources was prepared. Plates were incubated at 5% CO2, 90-100% humidity, and 37° C. for 48 to 72 hours prior to addition of the MTS/PMS colorometric reagent (10 μL/well). The color formed in each well 4-24 hours after addition of the calorimetric reagent, was measured with a plate reader at 490 nm with a reference wavelength of 650 nm. OD values from the control plate were subtracted from the OD values obtained with cells prior to normalizing the data to % negative control (cells without added energy source).

Experiment [1] relates to DMSO-differentiated HL-60 cells. The experiment is described as follows: Energy use by DMSO-differentiated HL-60 cells. The format is cell-based, human. The following applies: for activity at 30 µM / activity at 100 µM / activity at 330 µM / activity at 1000 µM / activity at 3300 µM / activity at 10000 µM / activity at 15000 µM / activity at 20000 µM: Homo sapiens, HL-60, 24 h, read-out: Energy Use by DMSO-Differentiated HL-60 Cells. As to the method:
In this Example, methods for testing in vitro-differentiated cells for their ability to use multiple energy sources are described. Prior to differentiation, HL-60 cells were cultured as described in Example 27. DMSO-induced differentiation (Odani et al., Res. Commun. Mol. Pathol. Pharmacol. 108:381-391 [2000]; and Yamaguchi et al., Biol. Pharm. Bull. 20:943-947 [1997]) was accomplished by incubation of the cells in the presence of 1.25% DMSO for 3 days.
After washing, HL-60 cells were resuspended in DME-R. An aliquot of the cell suspension was counted by trypan blue exclusion and the cell density was adjusted to 6.67×10^5/mL. Fifty μL of DME-R were added to each well of the appropriate number of half area, 96-well plates, followed by 25 μL of the appropriate dilution of each test energy source. Stocks of 133 mM of each test chemical were prepared in tissue culture grade water, sterile filtered, and dilutions were prepared in a master plate so that, upon dilution into a half-area 96-well microtiter plate to a total well volume of 150 μL, the final concentrations would be 0.033 to 20 mM. Negative control wells received 25 μL of tissue culture grade water. The cells were plated at a volume of 75 μL/well, giving a final cell density of 5×10^4/well. For each plate containing energy sources and cells, a second, control plate containing only energy sources was prepared with the same total volume of liquid (148 μL/well). Plates were incubated at 5% CO2, 90-100% humidity, and 37° C. for 24 hours prior to addition of the MTS/MPMS calorimetric reagent (7.5 μL/well). The color formed in each well 24 hours after addition of the colorimetric reagent, was measured with a plate reader at 490 nm with a reference wavelength of 650 nm. OD values from the control plate were subtracted from the OD values obtained with cells prior to normalizing the data to % negative control (cells without added energy source).

For `N[C@@H](Cc1c[nH]cn1)C(=O)O` [L-histidine], the results for the activity at 30 µM (with HepG2 cells (Conc. 0.03 mM); in experiment [1] (Conc. 0.03 mM)) were 125% and 119%, respectively. Moreover, the results for the activity at 100 µM (in the experiment with HepG2 cells (Conc. 0.10 mM); in experiment [1] (Conc. 0.10 mM)) were 142% and 123%, respectively. The activity at 330 µM in the experiment on HepG2 cells (Conc. 0.33 mM) was determined as 173%; in experiment [1] (Conc. 0.33 mM), 128%. Further, the activity at 1000 µM in the experiment with HepG2 cells (Conc. 1.00 mM) was 148%; in experiment [1] (Conc. 1.00 mM) it was 157%. The activity at 3300 µM worked out at 180% with HepG2 cells (Conc. 3.3 mM) and 172% in experiment [1] (Conc. 3.3 mM). Besides, the results for the activity at 10000 µM (in the experiment on HepG2 cells (Conc. 10 mM); in experiment [1] (Conc. 10 mM)) were 210% and 171%, respectively. Further, the activity at 15000 µM in the experiment with HepG2 cells (Conc. 15 mM) stood at 195%; in experiment [1] (Conc. 15 mM) it was 140%. Besides, the activity at 20000 µM in the experiment with HepG2 cells (Conc. 20 mM) stood at 72.1%; in experiment [1] (Conc. 20 mM) it was 114%.
Regarding `O=C[C@H](O)[C@@H](O)[C@@H](O)[C@H](O)C(=O)O` [D-galacturonic acid], the activity at 30 µM was 124% in the experiment with HepG2 cells (Conc. 0.03 mM) and 118% in experiment [1] (Conc. 0.03 mM). Also, the activity at 100 µM in the experiment on HepG2 cells (Conc. 0.10 mM) was determined as 140%; in experiment [1] (Conc. 0.10 mM), 123%. For the same compound, the figures for the activity at 330 µM (in the experiment on HepG2 cells (Conc. 0.33 mM); in experiment [1] (Conc. 0.33 mM)) were 171% and 138%, respectively. Moreover, the activity at 1000 µM turned out to be 177% with HepG2 cells (Conc. 1.00 mM) and 157% in experiment [1] (Conc. 1.00 mM). Besides, the activity at 3300 µM was found to be 165% in the experiment with HepG2 cells (Conc. 3.3 mM) and 168% in experiment [1] (Conc. 3.3 mM). Also, the activity at 10000 µM came to 179% in the experiment with HepG2 cells (Conc. 10 mM) and 173% in experiment [1] (Conc. 10 mM). In addition, the values for the activity at 15000 µM (in the experiment with HepG2 cells (Conc. 15 mM); in experiment [1] (Conc. 15 mM)) were 228% and 126%, respectively. The activity at 20000 µM was 162% in the experiment on HepG2 cells (Conc. 20 mM) and 101% in experiment [1] (Conc. 20 mM).
As for `O=C1O[C@H]([C@@H](O)CO)[C@@H](O)[C@@H]1O` [L-gal acid g-lactone], the “HepG2 Cells Responses After 72 hours in Culture and a 4 hour Color Development Period” value is 121.2 % of negative control in the experiment on HepG2 cells (Conc. 0.03 mM); 127.4 % of negative control in the experiment on HepG2 cells (Conc. 0.10 mM); 196.4 % of negative control in the experiment with HepG2 cells (Conc. 0.33 mM); 164.1 % of negative control in the experiment on HepG2 cells (Conc. 1.00 mM); 172.8 % of negative control in the experiment with HepG2 cells (Conc. 3.3 mM); 181.5 % of negative control in the experiment on HepG2 cells (Conc. 10 mM). In addition, the “HepG2 Cells Responses After 72 hours in Culture and a 4 hour Color Development Period” value in the experiment with HepG2 cells (Conc. 15 mM) is given as 215.1 % of negative control; in the experiment on HepG2 cells (Conc. 20 mM) it was 231.2 % of negative control. Besides, the “Energy Use by DMSO-Differentiated HL-60 Cells” value is listed as 113.9 % of negative control in experiment [1] (Conc. 0.03 mM); 129.2 % of negative control in experiment [1] (Conc. 0.10 mM); 137.5 % of negative control in experiment [1] (Conc. 0.33 mM); 155.4 % of negative control in experiment [1] (Conc. 1.00 mM); 178.2 % of negative control in experiment [1] (Conc. 3.3 mM); 171.1 % of negative control in experiment [1] (Conc. 10 mM). The “Energy Use by DMSO-Differentiated HL-60 Cells” value is 131.1 % of negative control in experiment [1] (Conc. 15 mM) and 98.1 % of negative control in experiment [1] (Conc. 20 mM).
Take `NC(=O)CC[C@H](N)C(=O)O` [L-glutamine]: the response in words entry with HepG2 cells (0.033 to 20 mM, 72 hour culture) is “dose dependent response in the 72 hour culture up to 3.3 mM”. For the same compound, the activity at 30 µM amounted to 103% in the experiment on HepG2 cells (Conc. 0.03 mM) and 110% in experiment [1] (Conc. 0.03 mM). The activity at 100 µM in the experiment on HepG2 cells (Conc. 0.10 mM) was 114%; in experiment [1] (Conc. 0.10 mM) it was 149%. Further, the activity at 330 µM came to 205% in the experiment with HepG2 cells (Conc. 0.33 mM) and 154% in experiment [1] (Conc. 0.33 mM). In addition, the activity at 1000 µM in the experiment with HepG2 cells (Conc. 1.00 mM) amounted to 218%; in experiment [1] (Conc. 1.00 mM) it was 156%. In addition, the activity at 3300 µM in the experiment on HepG2 cells (Conc. 3.3 mM) amounted to 260%; in experiment [1] (Conc. 3.3 mM), 172%. The results for the activity at 10000 µM (in the experiment with HepG2 cells (Conc. 10 mM); in experiment [1] (Conc. 10 mM)) were 224% and 157%, respectively. Besides, the results for the activity at 15000 µM (in the experiment on HepG2 cells (Conc. 15 mM); in experiment [1] (Conc. 15 mM)) were 146% and 121%, respectively. Further, the values for the activity at 20000 µM (with HepG2 cells (Conc. 20 mM); in experiment [1] (Conc. 20 mM)) were 111% and 109%, respectively.
Regarding `CC(C)[C@H](N)C(=O)O` [L-valine], the activity at 30 µM in the experiment on HepG2 cells (Conc. 0.03 mM) was determined as 119%; in experiment [1] (Conc. 0.03 mM), 81.1%. The activity at 100 µM was found to be 149% with HepG2 cells (Conc. 0.10 mM) and 89.4% in experiment [1] (Conc. 0.10 mM). Further, the activity at 330 µM was 170% in the experiment on HepG2 cells (Conc. 0.33 mM) and 85.2% in experiment [1] (Conc. 0.33 mM). For the same compound, the figures for the activity at 1000 µM (in the experiment on HepG2 cells (Conc. 1.00 mM); in experiment [1] (Conc. 1.00 mM)) were 125% and 86.7%, respectively. Further, the activity at 3300 µM was 176% in the experiment on HepG2 cells (Conc. 3.3 mM) and 81.2% in experiment [1] (Conc. 3.3 mM). Further, the figures for the activity at 10000 µM (in the experiment on HepG2 cells (Conc. 10 mM); in experiment [1] (Conc. 10 mM)) were 132% and 89.3%, respectively. The activity at 15000 µM in the experiment with HepG2 cells (Conc. 15 mM) is 108%; in experiment [1] (Conc. 15 mM), 81.4%. Besides, the activity at 20000 µM in the experiment with HepG2 cells (Conc. 20 mM) came out at 87.6%; in experiment [1] (Conc. 20 mM), 88.6%.
